Assay results published in ChEMBL document CHEMBL1201862, “PubChem BioAssay data set” (2004).
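These data come from cells grown in 96-well plates and exposed to compound for 48 hours at five concentrations. GI50 is the concentration that inhibits growth by half.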 The source made the active and inactive calls. Rule as the data show it: active = GI50 up to about 1.1 µM and inactive = higher.

How the values were obtained:
Assay in all cases: inhibition of tumour cell growth, NCI panel, 48 h
SK-MEL-2 = test system: SK-MEL-2
SK-OV-3 = test system: SK-OV-3
A549 = test system: A549
HT-29 = test system: HT-29
SNB-75 = test system: SNB-75
SF-295 = test system: SF-295
OVCAR-5 = test system: OVCAR-5
HCT-15 = test system: HCT-15
SR = test system: SR
IGROV-1 = test system: IGROV-1
UO-31 = test system: UO-31
UACC-257 = test system: UACC-257
HCT-116 = test system: HCT-116
HOP-92 = test system: HOP-92
TK-10 = test system: TK-10
SW-620 = test system: SW-620
HCC 2998 = test system: HCC 2998
SK-MEL-28 = test system: SK-MEL-28
SF-539 = test system: SF-539
NCI/ADR-RES = test system: NCI/ADR-RES

| SMILES | GI50 (SK-MEL-2) | GI50 (SK-OV-3) | GI50 (A549) | GI50 (HT-29) | GI50 (SNB-75) | GI50 (SF-295) | GI50 (OVCAR-5) | GI50 (HCT-15) | GI50 (SR) | GI50 (IGROV-1) | GI50 (UO-31) | GI50 (UACC-257) | GI50 (HCT-116) | GI50 (HOP-92) | GI50 (TK-10) | GI50 (SW-620) | GI50 (HCC 2998) | GI50 (SK-MEL-28) | GI50 (SF-539) | GI50 (NCI/ADR-RES) |
| --- | --- | --- | --- | --- | --- | --- | --- | --- | --- | --- | --- | --- | --- | --- | --- | --- | --- | --- | --- | --- |
| CC(=O)OC1COC(N2c3ccccc3[C@@H]3CCc4c([nH]c5ccccc45)[C@@H]32)C(OC(C)=O)C1OC(C)=O.CC(=O)OC1COC(N2c3ccccc3[C@H]3CCc4c([nH]c5ccccc45)[C@H]32)C(OC(C)=O)C1OC(C)=O (some centres undefined) | 44.1 µM (inactive) | 44.9 µM (inactive) | 16.7 µM (inactive) | 62.2 µM (inactive) | 11.4 µM (inactive) | 21.6 µM (inactive) | > 100 µM (inactive) | 47 µM | 11.6 µM (inactive) | 2.76 µM (inactive) | 9.79 µM (inactive) | 72.1 µM (inactive) | 14.3 µM (inactive) | 57.7 µM (inactive) | > 100 µM (inactive) | > 100 µM (inactive) | 40.1 µM (inactive) | > 100 µM (inactive) | – | – |
| CCOc1ncn(-c2ccc(NC(=S)Nc3ncccn3)cc2)n1 | – | > 100 µM (inactive) | 32.1 µM (inactive) | 13 µM (inactive) | 12.1 µM (inactive) | 97.5 µM (inactive) | 54.8 µM (inactive) | 39 µM | 24 µM (inactive) | 26.5 µM (inactive) | 18.6 µM (inactive) | 28.9 µM (inactive) | 32.5 µM (inactive) | 33.5 µM (inactive) | 41.3 µM (inactive) | 54.6 µM (inactive) | 25.9 µM (inactive) | 26.1 µM (inactive) | 15.4 µM (inactive) | – |
| O=C(CCN1CCOCC1)/C(=C/c1ccccc1)c1ccccc1 | 8.17 µM (inactive) | 19.3 µM (inactive) | 15.6 µM (inactive) | 4.49 µM (inactive) | 9.14 µM (inactive) | 12.3 µM (inactive) | 16.6 µM (inactive) | 2.19 µM | – | 9.93 µM (inactive) | 14 µM (inactive) | 2.74 µM (inactive) | 3.47 µM (inactive) | 3.5 µM (inactive) | – | 2.47 µM (inactive) | 15 µM (inactive) | 5.37 µM (inactive) | 2.92 µM (inactive) | 2.48 µM (inactive) |
| CCN1c2ccccc2-n2c(C)nnc2-c2c(-c3ccccc3)n[nH]c21 | 19.7 µM (inactive) | 57.9 µM (inactive) | 22.4 µM (inactive) | 24.5 µM (inactive) | 67 µM (inactive) | 31 µM (inactive) | > 100 µM (inactive) | 11.1 µM | 13 µM (inactive) | 21.4 µM (inactive) | 44.8 µM (inactive) | > 100 µM (inactive) | 26.5 µM (inactive) | 50.7 µM (inactive) | 41.4 µM (inactive) | 36.2 µM (inactive) | – | 30.5 µM (inactive) | 43.4 µM (inactive) | 11.9 µM (inactive) |
| CCOC(=O)Cc1cc(OC)c(OC)cc1/C(Cl)=C(\C=O)c1ccc(OC)c(OC)c1 | 19.7 µM (inactive) | 37.1 µM (inactive) | 16.9 µM (inactive) | 15.8 µM (inactive) | 32.1 µM (inactive) | 15.2 µM (inactive) | – | 17.5 µM | – | 28.6 µM (inactive) | 26.1 µM (inactive) | 18.9 µM (inactive) | 14.4 µM (inactive) | 1 µM (active) | 26 µM (inactive) | 22.9 µM (inactive) | – | 24.2 µM (inactive) | – | – |
| O=C(N/C(=C\c1ccccc1[N+](=O)[O-])c1nc2ccccc2[nH]1)c1ccccc1 | > 100 µM (inactive) | > 100 µM (inactive) | – | > 100 µM (inactive) | – | 55.8 µM (inactive) | > 100 µM (inactive) | 88.9 µM | 37.6 µM (inactive) | > 100 µM (inactive) | 45.8 µM (inactive) | – | – | 40.1 µM (inactive) | > 100 µM (inactive) | 58.5 µM (inactive) | > 100 µM (inactive) | > 100 µM (inactive) | – | – |
| Cc1cc(NC(=S)Nc2ccccc2)c(NC(=S)Nc2ccccc2)cc1C | 16.9 µM (inactive) | 35 µM (inactive) | 23.3 µM (inactive) | 36.6 µM (inactive) | 27 µM (inactive) | 11.4 µM (inactive) | > 65 µM (inactive) | 13.8 µM | – | 22.8 µM (inactive) | 21.6 µM (inactive) | 44 µM (inactive) | 14.3 µM (inactive) | 41.9 µM (inactive) | – | 11.6 µM (inactive) | 20.6 µM (inactive) | 38.8 µM (inactive) | 16 µM (inactive) | 11.5 µM (inactive) |
| CCOC(=O)NC(Nc1ncccn1)(C(F)(F)F)C(F)(F)F | > 100 µM (inactive) | > 100 µM (inactive) | – | > 100 µM (inactive) | > 100 µM (inactive) | – | > 100 µM (inactive) | > 100 µM | > 100 µM (inactive) | – | > 100 µM (inactive) | > 100 µM (inactive) | > 100 µM (inactive) | – | > 100 µM (inactive) | – | > 100 µM (inactive) | > 100 µM (inactive) | > 100 µM (inactive) | – |
